Reference: US20220186188A1, “Method for Obtaining Pancreatic Progenitor Cells and Pancreatic Islet Beta Cells By Means of Differentiation of Human Pluripotent Stem Cells” (Asia Regenerative Medicine, Ltd., priority 2019, published 2022)

Columns and labels:
[1] = test system: pancreatic progenitor cells and pancreatic islet β cells differentiated from human induced pluripotent stem cells; assay: Real-time fluorescence quantitative PCR of PDX1, NKX6-1 and INS mRNA (human induced pluripotent stem cells); format: cell-based; conditions: qPCR
Method: a pancreatic progenitor cell medium was prepared, the medium in step 1) was replaced with the pancreatic progenitor cell medium, and the cells were cultured in a carbon dioxide incubator at 37 degrees Celsius for 5 days, during which the medium was replaced every day, wherein the composition of the pancreatic progenitor cell medium was: with an MCDB131 medium as a basic medium, and the following components at the working concentrations were further included: 0.5% of bovine serum albumin (BSA), 1.5 g/L of sodium bicarbonate, 1×glutamine (GlutaMAX), 10 mM glucose, […] vitamin C, 1×insulin-transferrin-selenium-ethanolamine additive (ITS-X), 50 ng/ml of fibroblast growth factor (KGF), 0.5 μM SANT1 (with smo as an inhibitor target), 100 nM retinoic acid (TTNPB), 500 nM phorbol 12,13-dibutyrate (PDBu), 2 μM ALK inhibitor (K02288), and 2 μM WNT signaling pathway inhibitor XAV-939 (not added in a control group), with the concentrations all being final concentrations. […]

[2] = test system: pancreatic progenitor cells and pancreatic islet β cells differentiated from human embryonic stem cells; assay: Immunofluorescence detection of PDX1 and PDX1/INS proteins (human embryonic stem cells); format: cell-based
Method: a pancreatic progenitor cell medium was prepared, the medium in step 1) was replaced with the pancreatic progenitor cell medium, and the cells were cultured in a carbon dioxide incubator at 37 degrees Celsius for 5 days, during which the medium was replaced every day, wherein the composition of the pancreatic progenitor cell medium was: with an MCDB131 medium as a basic medium, and the following components at the working concentrations were further included: 0.5% of bovine serum albumin (BSA), 1.5 g/L of sodium bicarbonate, 1×glutamine (GlutaMAX), 10 mM glucose, 0.25 M vitamin C, 1×insulin-transferrin-selenium-ethanolamine additive (ITS-X), 50 ng/ml of fibroblast growth factor 7 (KGF), 0.5 μM SANT1 (with smo as an inhibitor target), 100 nM retinoic acid (TTNPB), 500 nM phorbol 12,13-dibutyrate (PDBu), 2 μM ALK inhibitor (K02288), and 2 μM WNT signaling pathway inhibitor XAV-939 (not added in a control group), with the concentrations all being final concentrations.
b. pancreatic islet β cell medium 2 was prepared, the pancreatic islet β cell medium 1 in above-mentioned step a was replaced with the pancreatic islet β cell medium 2, and the cells were cultured in a carbon dioxide incubator at 37 degrees Celsius for 5 days, during which the medium was replaced every day, wherein the composition of the pancreatic islet β cell medium 1 was: with an MCDB131 medium as a basic medium, and the following components at the working concentrations were further included: 20 mM glucose, 2% of bovine serum albumin (BSA), 1.5 g/L of sodium bicarbonate, 1×glutamine (GlutaMAX), 0.05 mM vitamin C, 1×insulin-transferrin-selenium-ethanolamine additive (ITS-X), 2 μM ALK inhibitor (K02288), 1 μM triiodothyronine (T3), 10 μM YO-01027 (Notch signaling pathway inhibitor), and 10 μM zinc sulfate, with the concentrations all being final concentrations; and the composition of the pancreatic islet β cell medium 2 was: with an MCDB131 medium as a basic medium, and the following components at the working concentrations were further included: 20 mM glucose, 2% of bovine serum albumin (BSA), 1.5 g/L of sodium bicarbonate, 1×glutamine (GlutaMAX), 0.05 mM vitamin C, 1×insulin-transferrin-selenium-ethanolamine additive (ITS-X), 1 μM triiodothyronine (T3), 10 μM Repsox (ALK5 inhibitor), 10 μM vitamin E, 10 μg/ml of heparin sodium, 2 μM R428 (Axl inhibitor), 10 μM zinc sulfate, and 10 mM N-acetyl-L-cysteine (N-cys), with the concentrations all being final concentrations.
Cells in a culture plate were washed three times with a phosphate buffered saline (PBS), 3 minutes each time; the cells were fixed with 4% paraformaldehyde at room temperature for 20 minutes, and washed three times with PBS, 3 minutes each time; a blocking solution was prepared in advance (by adding Triton at a final concentration of 0.3% to 9 ml of DPBS, adding donkey serum at a final concentration of 10%, and uniformly mixing); the above-prepared blocking solution was used for blocking and perforation at room temperature for 2 hours; the blocking solution was soaked up, a working concentration of primary antibody prepared with the blocking solution was then added, and the product was left to stand at room temperature for 30 minutes and then placed in a refrigerator at 4° C. overnight; the next day, the product was washed three times with PBS, 3 minutes each time; a fluorescent secondary antibody of donkey serum was added and incubation was carried out at room temperature for 2 hours; in the same way, the product was washed three times with PBS, 3 minutes each time; the product was incubated with a working solution of the nuclear dye DAPI at room temperature for 10 minutes, and washed three times with PBS, 3 minutes each time; then a fluorescence microscope was used for observation and data were collected. […]

[3] = 2 μM inhibitor in pancreatic progenitor cell stage, GAPDH reference
[4] = 2 μM inhibitor in pancreatic progenitor cell stage

Oc1nc(-c2ccc(C(F)(F)F)cc2)nc2c1CSCC2 [XAV-939]
transcription level of the insulin gene INS in the mature pancreatic islet β cell stage ([1]; 2 μM inhibitor added in pancreatic progenitor cell stage): greatly increased
relative expression of mRNA of NKX6-1 in pancreatic progenitor cells [1, 3]: significantly increased
relative expression of mRNA of PDX1 in pancreatic progenitor cells [1, 3]: significantly increased
number of insulin INS-positive and PDX1 co-stained pancreatic islet β cells in the mature pancreatic islet β cell stage ([2]; 2 μM inhibitor added in pancreatic progenitor cell stage, immunofluorescence): significantly increased
PDX1-positive pancreatic progenitor cells (immunofluorescence) [2, 4]: significantly increased
cell growth (total cell number by DAPI) [2, 4]: did not affect the cell growth
